Experiment [1] concerns the target GDP-bound NRAS wild-type protein (Homo sapiens, UniProt P01111). Nature of the experiment: Binding to NRAS by surface plasmon resonance (SPR), Single Cycle Kinetics. To be noted: SPR. (In general: Surface plasmon resonance follows binding to a sensor surface in real time, without labels.)
For experiment [2], the target named is GDP-bound HRAS wild-type protein (Homo sapiens, UniProt P01112). Briefly: Binding to HRAS by surface plasmon resonance (SPR), Single Cycle Kinetics. To be noted: SPR.
The mark [3] stands for this setting: GDP-bound NRAS wild-type vs GDP-bound KRAS wild-type.
The mark [4] stands for this setting: GDP-bound HRAS wild-type vs GDP-bound KRAS wild-type.
[5] abbreviates: KD ratio, GDP-bound NRAS wild-type vs GDP-bound KRAS wild-type.
The mark [6] stands for this setting: KD ratio, GDP-bound HRAS wild-type vs GDP-bound KRAS wild-type.

SMILES strings stand for the structures. Where a SMILES comes first, the peptide text is derived from it. Bridges are numbered along the chain shown (N, C = ends). [ ]: non-standard residue; d: D form. The star is where a group is joined. hPhe(3-Cl-4-CF3) = N[C@@H](CCc1ccc(C(F)(F)F)c(Cl)c1)C(=O)O; NPrPhe(4-CF3) = CCCN[C@@H](Cc1ccc(C(F)(F)F)cc1)C(=O)O; NMePhe(4-Me) = CN[C@@H](Cc1ccc(C)cc1)C(=O)O; NMeGly(cPent) = CN[C@H](C(=O)O)C1CCCC1; NMeD = CN[C@@H](CC(=O)O)C(=O)O; NMeL = CN[C@@H](CC(C)C)C(=O)O; NMeS = CN[C@@H](CO)C(=O)O; Morpholide = C1CN(*)CCO1; Ac5c = NC1(C(=O)O)CCCC1; NEtG = CCNCC(=O)O; Sar = CNCC(=O)O

Sequence of GDP-bound NRAS wild-type protein (P01111 whole entry): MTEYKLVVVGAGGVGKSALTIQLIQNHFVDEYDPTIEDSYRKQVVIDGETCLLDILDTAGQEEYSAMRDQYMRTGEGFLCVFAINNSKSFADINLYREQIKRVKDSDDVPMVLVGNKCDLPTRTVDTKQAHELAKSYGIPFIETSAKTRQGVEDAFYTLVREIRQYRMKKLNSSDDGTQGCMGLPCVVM
Sequence of GDP-bound HRAS wild-type protein (P01112 whole entry): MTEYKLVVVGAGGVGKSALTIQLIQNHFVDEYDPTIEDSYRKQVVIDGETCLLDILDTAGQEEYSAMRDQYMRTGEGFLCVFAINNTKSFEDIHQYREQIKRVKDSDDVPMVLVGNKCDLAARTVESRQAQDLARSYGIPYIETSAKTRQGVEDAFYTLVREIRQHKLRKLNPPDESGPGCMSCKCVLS

As to `CC[C@H](C)[C@@H]1NC(=O)[C@H](CC)N(C)C(=O)C[C@@H](C(=O)N(C)C)N(C)C(=O)[C@H](C2CCCC2)N(C)C(=O)C2(CCC2)NC(=O)[C@@H]2C[C@H](N3CCC(F)(F)CC3)CN2C(=O)[C@H](CCc2cc(F)c(C(F)(F)F)c(F)c2)NC(=O)CN(C)C(=O)[C@H](Cc2ccc(C(F)(F)F)cc2)N2CCCC[C@@H](C2=O)N(C)C(=O)CN(C)C1=O` [PP0732], the “NRAS/KRAS (ratio of KD value with respect to GDP-bound NRAS wild-type protein to KD value with respect to KRAS)” value in experiment [1] (KD ratio NRAS/KRAS) is “C (A compound having a KD ratio of 0.1 or more and less than 3 is denoted as C)”. Also, the “HRAS/KRAS (ratio of KD value with respect to GDP-bound HRAS wild-type protein to KD value with respect to KRAS)” value in experiment [2] (KD ratio HRAS/KRAS) was “B (a compound having 3 or more and less than 10 is denoted as B)”.

Consider `CCO[C@@H]1C[C@H]2C(=O)NC3(CC(C)(C)C3)C(=O)N(C)[C@@H](C(CC)CC)C(=O)N(C)[C@H](C(=O)N(C)C)CC(=O)N(C)[C@@H](C)C(=O)N[C@@H]([C@@H](C)CC)C(=O)N(C)CC(=O)N(C)[C@H]3C/C=C\CCN(C3=O)[C@@H](Cc3ccc(C)cc3)C(=O)N(C)CC(=O)N[C@@H](CCc3cc(F)c(C(F)(F)F)c(F)c3)C(=O)N2C1` [PP2143], for which the “NRAS/KRAS (ratio of KD value with respect to NRAS to KD value with respect to KRAS)” value in experiment [1] (setting [3]) was “A (a compound having 10 or more and less than 20 is denoted as A)”. Moreover, the “HRAS/KRAS (ratio of KD value with respect to HRAS to KD value with respect to KRAS)” value in experiment [2] (setting [4]) is “A (a compound having 10 or more and less than 20 is denoted as A)”.

On to `CC[C@H](C)[C@@H]1NC(=O)[C@H](CC(C)C)N(C)C(=O)C[C@@H](C(=O)N(C)C)N(C)C(=O)[C@H](C2CCCC2)N(C)C(=O)C2(CCCC2)NC(=O)[C@@H]2C[C@H](C)CN2C(=O)[C@H](CCc2cc(F)c(C(F)(F)F)c(F)c2)NC(=O)CN(C)C(=O)[C@H](Cc2ccc(C(F)(F)F)cc2)N2CC/C=C\C[C@@H](C2=O)N(C)C(=O)CN(C)C1=O` [PP2268], for which the “NRAS/KRAS (ratio of KD value with respect to NRAS to KD value with respect to KRAS)” value in experiment [1] (setting [3]) was “A (a compound having 10 or more and less than 20 is denoted as A)”. Besides, the “HRAS/KRAS (ratio of KD value with respect to HRAS to KD value with respect to KRAS)” value in experiment [2] (setting [4]) was “A (a compound having 10 or more and less than 20 is denoted as A)”.

Turning to `CC[C@H](C)[C@@H]1NC(=O)[C@H](CC(C)C)N(C)C(=O)C[C@@H](C(=O)N(C)C)N(C)C(=O)[C@H](C2CCCC2)N(C)C(=O)C2(CCCC2)NC(=O)[C@@H]2CCCN2C(=O)[C@H](CCc2ccc(C(F)(F)F)c(Cl)c2)NC(=O)CN(C)C(=O)[C@H](Cc2ccc(F)cc2)N2CCCCC[C@@H](C2=O)N(C)C(=O)CN(C)C1=O` [PP0971], in experiment [1] (setting [5]), the “NRAS/KRAS (ratio of KD value with respect to NRAS to KD value with respect to KRAS)” value was “B (a compound having 3 or more and less than 10 is denoted as B)”. In experiment [2] (setting [6]), the “HRAS/KRAS (ratio of KD value with respect to HRAS to KD value with respect to KRAS)” value was “B (a compound having 3 or more and less than 10 is denoted as B)”.

Regarding `CC[C@H](C)[C@@H]1NC(=O)[C@H](CC(C)C)N(C)C(=O)C[C@@H](C(=O)N2CCOCC2)N(C)C(=O)[C@H](C2CCCC2)N(C)C(=O)C2(CCCC2)NC(=O)[C@@H]2CCCN2C(=O)[C@H](CCc2ccc(C(F)(F)F)c(Cl)c2)NC(=O)CN(CC)C(=O)[C@H](Cc2ccc(C)cc2)N(C)C(=O)CN(C)C(=O)CN(C)C1=O` [PP0025] ([NMeL]I[Sar][Sar][NMePhe(4-Me)][NEtG][hPhe(3-Cl-4-CF3)]P[Ac5c][NMeGly(cPent)][NMeD]-Morpholide; lactam N-11), in experiment [1] (KD ratio NRAS/KRAS), the “NRAS/KRAS (ratio of KD for GDP-bound NRAS wild-type to KD for KRAS)” value is “C (A compound having a KD ratio of 0.1 or more and less than 3 is denoted as C)”. Further, the “HRAS/KRAS (ratio of KD for GDP-bound HRAS wild-type to KD for KRAS)” value in experiment [2] (KD ratio HRAS/KRAS) is “C (A compound having a KD ratio of 0.1 or more and less than 3 is denoted as C)”.

For the compound `CCO[C@@H]1C[C@H]2C(=O)NC3(CC(C)(C)C3)C(=O)N(C)[C@@H](C(CC)CC)C(=O)N(C)[C@H](C(=O)N3CCCC3)CC(=O)N(C)[C@@H](COC)C(=O)N[C@@H]([C@@H](C)CC)C(=O)N(C)CC(=O)N(C)[C@H]3C/C=C\CCN(C3=O)[C@@H](Cc3ccc(C(F)(F)F)cc3)C(=O)N(C)CC(=O)N[C@@H](CCc3ccc(C(F)(F)F)c(Cl)c3)C(=O)N2C1` [PP2128], in experiment [1] (setting [3]), the “NRAS/KRAS (ratio of KD value with respect to NRAS to KD value with respect to KRAS)” value is “AA (a compound having 20 or more is denoted as AA)”. The “HRAS/KRAS (ratio of KD value with respect to HRAS to KD value with respect to KRAS)” value in experiment [2] (setting [4]) was “A (a compound having 10 or more and less than 20 is denoted as A)”.

`CCCN1C(=O)CN(C)C(=O)CN(C)C(=O)[C@H]([C@@H](C)CC)NC(=O)[C@H](CC(C)C)N(C)C(=O)C[C@@H](C(=O)N2CCOCC2)N(C)C(=O)[C@H](C2CCCC2)N(C)C(=O)C2(CCCC2)NC(=O)[C@H](COC)N(C)C(=O)[C@H](CCc2ccc(C(F)(F)F)c(Cl)c2)NC(=O)CN(C)C(=O)[C@@H]1Cc1ccc(C(F)(F)F)cc1` [PP1920] ([NMeL]I[Sar][Sar][NPrPhe(4-CF3)][Sar][hPhe(3-Cl-4-CF3)][NMeS](Me)[Ac5c][NMeGly(cPent)][NMeD]-Morpholide; lactam N-11): in experiment [1] (setting [5]), the “NRAS/KRAS (ratio of KD value for NRAS to KD value for KRAS)” value is “B (a compound having 3 or more and less than 10 is denoted as B)”. The “HRAS/KRAS (ratio of KD value for HRAS to KD value for KRAS)” value in experiment [2] (setting [6]) is “C (A compound having a KD ratio of 0.1 or more and less than 3 is denoted as C)”.
